Measured values from PubChem BioAssay (NCI).
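1) Cells in 96-well plates. 2) Compound, 48 h, 5 concentrations. 3) Linear interpolation between surrounding doses. 4) Unreached endpoint = highest concentration. Definition used: TGI = concentration required for complete inhibition of growth.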

Tests used:
Experiment in all cases: growth of human tumour cells (NCI), 48 h
[1] = tested on: 786-0 renal
[2] = tested on: A549 NSCLC
[3] = tested on: ACHN renal
[4] = tested on: BT-549 breast
[5] = tested on: CAKI-1 renal
[6] = tested on: CCRF-CEM leukemia
[7] = tested on: COLO 205 colon
[8] = tested on: DU-145 prostate
[9] = tested on: EKVX NSCLC
[10] = tested on: HCC-2998 colon
[11] = tested on: HCT-116 colon
[12] = tested on: HCT-15 colon
[13] = tested on: HL-60(TB) leukemia
[14] = tested on: HOP-62 NSCLC
[15] = tested on: HOP-92 NSCLC
[16] = tested on: HS 578T breast
[17] = tested on: HT29 colon
[18] = tested on: IGROV1 ovarian
[19] = tested on: K-562 leukemia
[20] = tested on: KM12 colon
[21] = tested on: LOX IMVI melanoma
[22] = tested on: M14 melanoma
[23] = tested on: MALME-3M melanoma
[24] = tested on: MCF7 breast
[25] = tested on: MDA-MB-231 breast
[26] = tested on: MDA-MB-435
[27] = tested on: MDA-N
[28] = tested on: MOLT-4 leukemia
[29] = tested on: NCI-H226 lung
[30] = tested on: NCI-H23 lung
[31] = tested on: NCI-H460 lung
[32] = tested on: NCI-H522 lung
[33] = tested on: NCI/ADR-RES ovarian
[34] = tested on: OVCAR-3 ovarian
[35] = tested on: OVCAR-4 ovarian
[36] = tested on: OVCAR-5 ovarian
[37] = tested on: OVCAR-8 ovarian
[38] = tested on: PC-3 prostate
[39] = tested on: RPMI-8226 leukemia
[40] = tested on: RXF 393 renal
[41] = tested on: SF-268 CNS
[42] = tested on: SF-295 CNS
[43] = tested on: SF-539 CNS
[44] = tested on: SK-MEL-2 melanoma
[45] = tested on: SK-MEL-28 melanoma
[46] = tested on: SK-MEL-5 melanoma
[47] = tested on: SK-OV-3 ovarian
[48] = tested on: SN12C renal
[49] = tested on: SNB-19 CNS
[50] = tested on: SNB-75 CNS
[51] = tested on: SW-620 colon
[52] = tested on: T-47D breast
[53] = tested on: TK-10 renal
[54] = tested on: U251 CNS
[55] = tested on: UACC-257 melanoma
[56] = tested on: UACC-62 melanoma
[57] = tested on: UO-31 renal

## NC(=O)CN1CCN(c2nc(N3CCCC3)c3nc(Cl)c(NCc4ccccc4)nc3n2)CC1
[1]
  TGI: 18 µM
[2]
  TGI: 35.2 µM
[3]
  TGI: 32.2 µM
[4]
  TGI: 19.5 µM
[5]
  TGI: > 50 µM
[6]
  TGI: > 50 µM
[7]
  TGI: 15.8 µM
[8]
  TGI: 28.8 µM
[9]
  TGI: 30.3 µM
[10]
  TGI: 15.4 µM
[11]
  TGI: 14.7 µM
[12]
  TGI: 17.3 µM
[13]
  TGI: 19.2 µM
[14]
  TGI: 4.89 µM
[15]
  TGI: 20.6 µM
[16]
  TGI: 24.2 µM
[17]
  TGI: 18 µM
[18]
  TGI: 25.5 µM
[19]
  TGI: 21 µM
[20]
  TGI: 22 µM
[21]
  TGI: 16.5 µM
[22]
  TGI: 17.5 µM
[23]
  TGI: 16.3 µM
[24]
  TGI: 16.6 µM
[25]
  TGI: 20.6 µM
[26]
  TGI: 20.5 µM
[27]
  TGI: 16.4 µM
[28]
  TGI: 20.3 µM
[29]
  TGI: 39.9 µM
[30]
  TGI: 35.6 µM
[31]
  TGI: 17.5 µM
[32]
  TGI: 24.1 µM
[33]
  TGI: 40.9 µM
[34]
  TGI: 16.3 µM
[35]
  TGI: 48.2 µM
[36]
  TGI: 17.9 µM
[37]
  TGI: > 50 µM
[38]
  TGI: 24.9 µM
[39]
  TGI: 19.8 µM
[40]
  TGI: 16.2 µM
[41]
  TGI: 17 µM
[42]
  TGI: 16.3 µM
[43]
  TGI: 17.5 µM
[44]
  TGI: 17.3 µM
[45]
  TGI: 18.5 µM
[46]
  TGI: 15.7 µM
[47]
  TGI: 20.4 µM
[48]
  TGI: 16.9 µM
[49]
  TGI: 18.9 µM
[50]
  TGI: 24.4 µM
[51]
  TGI: 31.4 µM
[52]
  TGI: 20.7 µM
[53]
  TGI: 34.7 µM
[54]
  TGI: 15.5 µM
[55]
  TGI: 19.7 µM
[56]
  TGI: 17.2 µM
[57]
  TGI: 21.9 µM
